One assay concerns TNF-α. Kind of assay: Cytokine assay, TNF-α release from PBMC. Format: cell-based. The conditions noted are these: Homo sapiens, PBMC, 24 h, 1 μg/mL LPS, supernatant at 24 hours. The method in brief:
(§1)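 Cytokine released into the medium was the read-out. Thawed human peripheral blood mononuclear cells in RPMI 1640/10% FBS received test article at 0.01–10 μM, in triplicate wells.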

Another assay deals with IL-2. Kind of assay: Cytokine assay, IL-2 release from PBMC. Format: cell-based. The note with it: human PBMC, 20 ug/mL PHA, supernatant at 24 hours. The method in brief: as §1
Another assay relates to IFN-γ. Briefly: Cytokine assay, IFN-γ release from PBMC. The note with it: human PBMC, 20 ug/mL PHA, supernatant at 24 hours. Format: cell-based. The method in brief:
as §1

In a further assay the test system is IL-5. Briefly: Cytokine assay, IL-5 release from PBMC. Format: cell-based. The note with it: human PBMC, 20 ug/mL PHA, supernatant at 48 hours. The method in brief:
as §1

A further assay has as its system IL-10. Kind of assay: Cytokine assay, IL-10 release from PBMC. Format: cell-based. The note with it: human PBMC, 20 ug/mL PHA, supernatant at 48 hours. The method in brief: as §1
Assay [1] has as its system T1, PDE4 partially purified from human U-937 myeloid leukemia cells.
T1 construct: PDE4 partially purified from human U-937 myeloid leukemia cells was used
Briefly: PDE4 Assay (enzyme from U-937 cells, [3H]cAMP). Format: biochemical. The note with it: PDE4 from U-937 cells, Tris buffer pH 7.5, 20 minutes at 25° C.

Assay [2] deals with CD-1 (Crl.) derived male mice. Kind of assay: Phorbol Ester Induced Mouse Ear Edema Model. Format: in vivo. The conditions noted are these: topical, 6 h, 1 mg/ear × 2 topical. How it is done: 1. In Vivo Anti-Inflammation Activity in Phorbol Ester Induced Mouse Ear Edema Model
[…] Dexamethasone (1 mg/ear×2) used as the positive control was administered topically to test animals using the same application schedule. Ear swelling was then measured by a Dyer model micrometer gauge at 6 hours after PMA application as an index of inflammation. Percent inhibition was calculated according to the formula: [(Ic−It)/Ic]×100%, where Ic and It refer to increase of ear thickness (mm) in control and treated mice, respectively.

The mark [3] stands for this setting: Acetone:Ethanol/1:1, ear swelling 6 hours after PMA.

Structures can show the parent of a compound that is named as a salt. A value given as a limit tells only on which side of the number the result lay.

Take `N#Cc1ccc(Oc2ccc3c(c2)COB3O)cc1O` [D10, 5-(4-Cyano-3-hydroxyphenoxy)-1,3-dihydro-1-hydroxy-2,1-benzoxaborole]: the IC50 in the assay on TNF-α is < 1000 nM; in the assay on IL-2, 4000 to 10000 nM; with IFN-γ it was 4000 to 10000 nM; in the assay on IL-5, 4000 to 10000 nM; in the assay with IL-10, 1000 to 4000 nM; in assay [1], 1000 to 4000 nM. In assay [2] (setting [3]), this molecule had an inhibition in vivo at 1 mg of 60 to 90%.
As for `N#Cc1ccc(Oc2ccc3c(c2)COB3O)c(CO)c1` [D24, 5-[4-Cyano-2-(hydroxymethyl)phenoxy]-1,3-dihydro-1-hydroxy-2,1-benzoxaborole], in the assay on TNF-α, the IC50 was in the range of 1000 to 4000 nM. Moreover, the inhibition in vivo at 1 mg in assay [2] (setting [3]) is 60 to 90%.
For `N#Cc1ccc(Oc2ccc3c(c2)COB3O)c(OCc2ccccn2)c1` [D31, 2-((5-cyano-2-(1-hydroxy-1,3-dihydrobenzo[c][1,2]oxaborol-5-yloxy)phenoxy)methyl)pyridine hydrochloride], the IC50 in the assay on TNF-α is 1000 to 4000 nM. This molecule gave an inhibition in vivo at 1 mg in assay [2] (setting [3]) of 30 to 60%.
Take `O=Cc1ccc(Oc2ccc3c(c2)COB3O)nc1` [D69, 6-(1-Hydroxy-1,3-dihydrobenzo[c][1,2]oxaborol-5-yloxy)nicotinaldehyde]: the IC50 with TNF-α is 1000 to 4000 nM; in the assay on IL-2 it was 1000 to 4000 nM; in the assay on IFN-γ, 1000 to 4000 nM; in assay [1], < 1000 nM. Moreover, in assay [2] (vehicle not given, ear swelling 6 hours after PMA), the inhibition in vivo at 1 mg lay in the range of 30 to 60%.
Take `CS(=O)(=O)c1ccc(Oc2ccc3c(c2)COB3O)cc1` [D103, 5-(4-(methylsulfonyl)phenoxy)benzo[c][1,2]oxaborol-1 (3H)-ol]: the concentration for half-maximal inhibition (IC50) in the assay with TNF-α was 1000 to 4000 nM; with IL-2, < 1000 nM; with IFN-γ, < 1000 nM; in the assay on IL-5, < 1000 nM; in the assay with IL-10 it was 1000 to 4000 nM; in assay [1] it was 1000 to 4000 nM.
Take `CC(C)S(=O)(=O)c1ccc(Oc2ccc3c(c2)COB3O)cc1` [D104, 5-(4-(isopropylsulfonyl)phenoxy)benzo[c][1,2]oxaborol-1 (3H)-ol]: the IC50 is 1000 to 4000 nM in the assay on TNF-α; 1000 to 4000 nM with IL-2; 1000 to 4000 nM in the assay on IFN-γ; 4000 to 10000 nM in the assay with IL-5; 4000 to 10000 nM in the assay on IL-10; < 1000 nM in assay [1].
With `CCS(=O)(=O)c1ccc(Oc2ccc3c(c2)COB3O)cc1` [D105, 5-(4-(ethylsulfonyl)phenoxy)benzo[c][1,2]oxaborol-1 (3H)-ol], the IC50 lay in the range of 1000 to 4000 nM in the assay on TNF-α; 1000 to 4000 nM in the assay on IL-2; 1000 to 4000 nM with IFN-γ; 4000 to 10000 nM in the assay on IL-5; 1000 to 4000 nM in the assay on IL-10; 1000 to 4000 nM in assay [1].
For `N#Cc1ccc(NCCO)nc1Oc1ccc2c(c1)COB2O` [D106, 2-(1-Hydroxy-1,3-dihydro-benzo[c][1,2]oxaborol-5-yloxy)-6-(2-hydroxy-ethylamino)-nicotinonitrile], the IC50 in the assay on TNF-α was < 1000 nM; in the assay on IL-2 it was < 1000 nM; with IFN-γ, < 1000 nM; with IL-5 it was < 1000 nM; in the assay on IL-10, 4000 to 10000 nM; in assay [1], < 1000 nM.
Regarding `COc1nc(Oc2ccc3c(c2)COB3O)ccc1C(N)=O` [D112, 6-(1-Hydroxy-1,3-dihydro-benzo[c][1,2]oxaborol-5-yloxy)-2-methoxy-nicotinamide], the concentration for half-maximal inhibition (IC50) with TNF-α was < 1000 nM; with IL-2, < 1000 nM; in the assay with IFN-γ it was < 1000 nM; in the assay with IL-5, 1000 to 4000 nM; with IL-10 it was < 1000 nM; in assay [1], < 1000 nM.
In the case of `N#Cc1ccc(Oc2ccc3c(c2)COB3O)nc1NCCOCc1ccccc1` [D113, 2-(2-Benzyloxy-ethylamino)-6-(1-hydroxy-1,3-dihydro-benzo[c][1,2]oxaborol-5-yloxy)-nicotinonitrile], the IC50 in the assay with TNF-α is < 1000 nM; in the assay with IL-2 it was < 1000 nM; with IFN-γ, < 1000 nM; with IL-5, < 1000 nM; in the assay on IL-10, 4000 to 10000 nM; in assay [1], < 1000 nM.
For `CN(CCO)c1nc(Oc2ccc3c(c2)COB3O)ccc1C#N` [D115, 6-(1-Hydroxy-1,3-dihydro-benzo[c][1,2]oxaborol-5-yloxy)-2-[(2-hydroxy-ethyl)-methyl-amino]-nicotinonitrile], the IC50 was < 1000 nM in the assay with TNF-α; < 1000 nM in the assay on IL-2; < 1000 nM in the assay with IFN-γ; < 1000 nM in the assay with IL-5; 4000 to 10000 nM with IL-10; < 1000 nM in assay [1].
For `COc1nc(Oc2ccc3c(c2)COB3O)ncc1C#N` [D116, 2-(1-Hydroxy-1,3-dihydro-benzo[c][1,2]oxaborol-5-yloxy)-4-methoxy-pyrimidine-5-carbonitrile], the IC50 with TNF-α is < 1000 nM; in the assay with IL-2 it was < 1000 nM; in the assay with IFN-γ it was < 1000 nM; in the assay with IL-5, < 1000 nM; in the assay on IL-10 it was 1000 to 4000 nM; in assay [1], < 1000 nM.
As to `N#Cc1cnc(Oc2ccc3c(c2)COB3O)cc1OCCOC1CCCCO1` (stereo not shown) [D118, 6-(1-Hydroxy-1,3-dihydro-benzo[c][1,2]oxaborol-5-yloxy)-4-[2-(tetrahydro-pyran-2-yloxy)-ethoxy]-nicotinonitrile], the IC50 with TNF-α was < 1000 nM; in the assay on IL-2, < 1000 nM; with IFN-γ, < 1000 nM; with IL-5, < 1000 nM; in the assay with IL-10, 1000 to 4000 nM; in assay [1], < 1000 nM.
Regarding `N#Cc1cnc(Oc2ccc3c(c2)COB3O)cc1OCCO` [D119, 6-(1-Hydroxy-1,3-dihydro-benzo[c][1,2]oxaborol-5-yloxy)-4-(2-hydroxy-ethoxy)-nicotinonitrile], the IC50 (in the assay with TNF-α; in the assay with IL-2; in the assay with IFN-γ; with IL-5; in the assay on IL-10; in assay [1]) was < 1000 nM each time.
In the case of `CCOc1cc(Oc2ccc3c(c2)COB3O)ncc1C#N` [D120, 4-Ethoxy-6-(1-hydroxy-1,3-dihydro-benzo[c][1,2]oxaborol-5-yloxy)-nicotinonitrile], the half-maximal inhibitory concentration (IC50) (with TNF-α; in the assay on IL-2; with IFN-γ; in the assay on IL-5; in the assay on IL-10; in assay [1]) was < 1000 nM in each case.
On to `N#Cc1cnc(Oc2ccc3c(c2)COB3O)c(O)c1` [D123, 5-Hydroxy-6-(1-hydroxy-1,3-dihydro-benzo[c][1,2]oxaborol-5-yloxy)-nicotinonitrile], for which the IC50 in the assay on TNF-α was < 1000 nM; in the assay with IL-2, < 1000 nM; in the assay on IFN-γ it was < 1000 nM; in the assay with IL-5 it was 1000 to 4000 nM; with IL-10, 1000 to 4000 nM; in assay [1], < 1000 nM.
Take `N#Cc1ccc(Oc2ccc3c(c2)COB3O)nc1OCC(F)(F)F` [D125, 6-(1-Hydroxy-1,3-dihydro-benzo[c][1,2]oxaborol-5-yloxy)-2-(2,2,2-trifluoro-ethoxy)-nicotinonitrile]: the IC50 (in the assay with TNF-α; in the assay with IL-2; in the assay on IFN-γ; in the assay on IL-5; with IL-10; in assay [1]) was < 1000 nM each time.
Consider `CC(=O)OCCOc1nc(Oc2ccc3c(c2)COB3O)ccc1C#N` [D126, 2-[3-cyano-6-(1-hydroxy-1,3-dihydro-benzo[c][1,2]oxaborol-5-yloxy)-pyridin-2-yloxy]-ethyl acetate], for which the IC50 (in the assay on TNF-α; in the assay on IL-2; with IFN-γ; with IL-5; in the assay on IL-10; in assay [1]) was < 1000 nM in each case.
As to `N#Cc1ccc(Oc2ccc3c(c2)COB3O)nc1OCC(F)F` [D127, 2-(2,2-Difluoro-ethoxy)-6-(1-hydroxy-1,3-dihydro-benzo[c][1,2]oxaborol-5-yloxy)-nicotinonitrile], the IC50 (with TNF-α; with IL-2; with IFN-γ; in the assay with IL-5; in the assay with IL-10; in assay [1]) was < 1000 nM in each case.
Take `CC(C)Oc1nc(Oc2ccc3c(c2)COB3O)ccc1C#N` [D128, 6-(1-Hydroxy-1,3-dihydro-benzo[c][1,2]oxaborol-5-yloxy)-2-isopropoxy-nicotinonitrile]: the concentration for half-maximal inhibition (IC50) (with TNF-α; in the assay on IL-2; in the assay on IFN-γ; in the assay with IL-5; in the assay on IL-10; in assay [1]) was < 1000 nM each time.
As for `N#Cc1ccc(Oc2ccc3c(c2)COB3O)nc1N` [D130, 2-amino-6-(1-hydroxy-1,3-dihydro-benzo[c][1,2]oxaborol-5-yloxy)-nicotinonitrile], the IC50 (with TNF-α; in the assay on IL-2; with IFN-γ; in the assay with IL-5; in the assay on IL-10; in assay [1]) was < 1000 nM in each case.
As for `CCCOc1nc(Oc2ccc3c(c2)COB3O)ccc1C#N` [D131, 6-(1-Hydroxy-1,3-dihydro-benzo[c][1,2]oxaborol-5-yloxy)-2-propoxy-nicotinonitrile], the IC50 (in the assay on TNF-α; with IL-2; with IFN-γ; in the assay with IL-5; with IL-10; in assay [1]) was < 1000 nM each time.

By IC50 is commonly meant the concentration that inhibits the measured activity by half. Usually inhibition in vivo stands for the percentage by which the read-out fell short of the control. High values mean a response far below the control, low ones a response near the control.

The record behind these values is patent publication US9012431B2, “Boron-containing small molecules as anti-inflammatory agents” (Anacor Pharmaceuticals, Inc., priority 2008, dated 2015).
